Results from patent US8288421B2, “Phenylaminopyridines” (Basilea Pharmaceutica AG, priority 2004, dated 2012).
pEC50, pIC50: −log10 of the molar value.

Assays:
Jily [1] = assay: MTS proliferation assay; format: cell-based; settings: 72 h read-out
Experimental: (§1) The assay is performed in 96 well tissue culture plates. The cells (range: 1.5*10^3-10^4) are seeded out in 80 μl complete medium 24 h prior to compound treatment. The test compounds are added in 20 μl complete medium containing max 5% DMSO. The final compound concentrations in the assays are in the range of 0.001 μM-10 μM. The assay plates are incubated for 72 h at culture conditions. The MTS reagent is prepared according to the manufacturer's protocol (Promega G1111). 20 μl MTS reagent are added to each well, the assay plates are quickly spun and incubated for another 3 h at culture conditions. Subsequently, the plates are shortly shaked and absorption measured with a microplate-reader at 492 nm. The scores A, B, C and D are explained at the end of the Table.

MRC5 [2] = assay: MTS proliferation assay; format: cell-based; settings: MRC5, 72 h read-out
Experimental: as §1

Jily [3] = assay: Hoechst 33342 nuclear staining; format: cell-based; settings: 48 h read-out
Experimental: (§2) This assay is performed in 96 well tissue culture plates. Appropriate number of cells (adherent cells: 3-5*10^3, suspension cells: 8-10*10^3) are being seeded out in 80 μl complete medium. Adherent cells are incubated for 24 h for proper spreading out before addition of test compounds while suspension cells are immediately treated with test compounds after seeding out. The test compounds are added in 20 μl complete medium containing max 5% DMSO. The final compound concentrations in the assays are in the range of 0.001 μM-10 μM. […] The assay plates are then further incubated for 30 minutes and subsequently analyzed with a standard inverted fluorescence microscope.
(§3) The readout allows the determination of the fraction of apoptotic nuclei as well as other morphological criteria specific for apoptosis as a function of the treatment. The scores A, B, C and D are explained at the end of the Table.

MRC5 [4] = assay: Hoechst 33342 nuclear staining; format: cell-based; settings: MRC5, 48 h read-out
Experimental: as §2, §3

PBL [5] = assay: Mitochondrial membrane potential (JC-1); format: cell-based, human; settings: 48 h read-out
Experimental: as §2, with “20 μal” for “20 μl”, “DMSO.” for “DMSO. The final compound concentrations in the assays are in the range of 0.001 μM-10 μM.”, “fluorescence microscope by using the FITC and TRITC filters.” for “fluorescence microscope.”
(§4) The scores A, B, C and D are explained at the end of the Table.

HeLa [6] = assay: Mitochondrial membrane potential (JC-1); format: cell-based, human; settings: 48 h read-out
Experimental: as §2, with “20 μal” for “20 μl”, “DMSO.” for “DMSO. The final compound concentrations in the assays are in the range of 0.001 μM-10 μM.”, “fluorescence microscope by using the FITC and TRITC filters.” for “fluorescence microscope.”
as §4

Jurkat [7] = assay: Mitochondrial membrane potential (JC-1); format: cell-based, human; settings: 48 h read-out
Experimental: as §2, with “20 μal” for “20 μl”, “DMSO.” for “DMSO. The final compound concentrations in the assays are in the range of 0.001 μM-10 μM.”, “fluorescence microscope by using the FITC and TRITC filters.” for “fluorescence microscope.”
as §4

MCF7 = assay: Mitochondrial membrane potential (JC-1); format: cell-based, human; settings: MCF7, 48 h read-out
Experimental: as §2, with “20 μal” for “20 μl”, “DMSO.” for “DMSO. The final compound concentrations in the assays are in the range of 0.001 μM-10 μM.”, “fluorescence microscope by using the FITC and TRITC filters.” for “fluorescence microscope.”
as §4

DOHH2 = assay: Mitochondrial membrane potential (JC-1); format: cell-based; settings: DOHH2, 48 h read-out
Experimental: as §2, with “20 μal” for “20 μl”, “DMSO.” for “DMSO. The final compound concentrations in the assays are in the range of 0.001 μM-10 μM.”, “fluorescence microscope by using the FITC and TRITC filters.” for “fluorescence microscope.”
as §4

PBL [8] = assay: Hoechst 33342 nuclear staining; format: cell-based, human; settings: 48 h read-out
Experimental: as §2, §3

HeLa [9] = assay: Hoechst 33342 nuclear staining; format: cell-based, human; settings: 48 h read-out
Experimental: as §2, §3

Jurkat [10] = assay: Hoechst 33342 nuclear staining; format: cell-based, human; settings: 48 h read-out
Experimental: as §2, §3

HeLa [11] = assay: MTS proliferation assay; format: cell-based, human; settings: 72 h read-out
Experimental: as §1

Jurkat [12] = assay: MTS proliferation assay; format: cell-based, human; settings: 72 h read-out
Experimental: as §1

HT1080 = assay: MTS proliferation assay; format: cell-based, human; settings: HT1080, 72 h read-out
Experimental: as §1

pEC50 (Jily [3])	pEC50 (PBL [5])	pEC50 (HeLa [6])	pEC50 (Jurkat [7])	pEC50 (MCF7)	pEC50 (DOHH2)	pEC50 (PBL [8])	pEC50 (HeLa [9])	pEC50 (Jurkat [10])	pIC50 (HeLa [11])	pIC50 (Jurkat [12])	pIC50 (HT1080)	SMILES	pIC50 (Jily [1])	pIC50 (MRC5 [2])	pEC50 (MRC5 [4])
–	< 6.00	6.00 to 7.00	7.00 to 8.00	6.00 to 7.00	7.00 to 8.00	–	–	–	6.00 to 7.00	6.00 to 7.00	6.00 to 7.00	COc1ccc(Nc2cncc(-c3cccc(NC(=O)c4ccc(OC)cc4)c3)c2)cc1 [Example 9]	6.00 to 7.00	< 6.00	–
6.00 to 7.00	< 6.00	6.00 to 7.00	7.00 to 8.00	6.00 to 7.00	6.00 to 7.00	< 6.00	7.00 to 8.00	7.00 to 8.00	6.00 to 7.00	7.00 to 8.00	7.00 to 8.00	CCOc1ccccc1C(=O)Nc1cccc(-c2cncc(Nc3ccc(OC)cc3)c2)c1 [Example 10]	7.00 to 8.00	6.00 to 7.00	< 6.00
7.00 to 8.00	< 6.00	6.00 to 7.00	7.00 to 8.00	6.00 to 7.00	7.00 to 8.00	< 6.00	7.00 to 8.00	7.00 to 8.00	7.00 to 8.00	> 8.00	7.00 to 8.00	COc1ccc(Nc2cncc(-c3cccc(NC(=O)c4cnccn4)c3)c2)cc1 [Example 12]	7.00 to 8.00	6.00 to 7.00	6.00 to 7.00

SMILES	pEC50 (Jily [3])	pEC50 (PBL [5])	pEC50 (HeLa [6])	pEC50 (Jurkat [7])	pEC50 (MCF7)	pEC50 (DOHH2)	pEC50 (PBL [8])	pEC50 (HeLa [9])	pEC50 (Jurkat [10])	pIC50 (HeLa [11])	pIC50 (Jurkat [12])	pIC50 (HT1080)	pIC50 (Jily [1])	pIC50 (MRC5 [2])	pEC50 (MRC5 [4])
COc1ccc(Nc2cncc(-c3cccc(NC(C)=O)c3)c2)cc1 [Example 8]	6.00 to 7.00	< 6.00	6.00 to 7.00	6.00 to 7.00	< 6.00	6.00 to 7.00	< 6.00	6.00 to 7.00	6.00 to 7.00	6.00 to 7.00	6.00 to 7.00	6.00 to 7.00	6.00 to 7.00	< 6.00	6.00 to 7.00
